In one series the test system is Lepomis macrochirus. The note with it: acute; duration: 96 hours; mortality.
The test system of a further series is Bibionidae. The note with it: chronic/long-term; duration: 28 days; development.
The next series concerns Oryctolagus sp. The note with it: developmental; development.
The test system of a further series is Daphnia magna. The note with it: chronic/long-term; duration: 21 days; reproduction.
In the next series the test system is Tagia sp. The note with it: chronic/long-term; duration: 8 weeks; reproduction.
The subject of another series is Colinus virginianus. The note with it: acute; oral; mortality.
The subject of the next series is Pimephales promelas. The note with it: chronic/long-term; reproduction.
For a further series, the system named is Folsomia candida. The note with it: chronic/long-term; duration: 4 weeks; mortality.
A further series relates to Apis mellifera. The note with it: acute, mortality.
For the next series, the system named is Rattus norvegicus. The note with it: acute; oral; mortality.
For another series, the system named is Aphidius rhopalosiphi. As to the kind of experiment: LR50; higher = less toxic. The note with it: acute; mortality.
For a further series, the system named is Typhlodromus pyri. As to the kind of experiment: LR50; higher = less toxic. The note with it: acute; mortality.

SMILES strings stand for the structures.

Data on one molecule can be found in EPA's ToxValDB 9.5 (doi:10.2903/j.efsa.2017.4695).

In general, LC50 refers to the concentration that kills 50% of the test population. The NOAEL is the highest tested level that showed no adverse finding. On to `COc1cc(OC)nc(NC(=O)NS(=O)(=O)c2c(Cl)nc3ccccn23)n1` [Imazosulfuron], for which the median lethal concentration (LC50) with Lepomis macrochirus was greater than 74 µg/mL. The LD50 in the series on Anas platyrhynchos (acute, oral, unspecified, mortality) is greater than 2250 mg/kg-day; with Colinus virginianus, greater than 2250 mg/kg-day; in the series on Apis mellifera (dermal), greater than 100 µg/piece; in the series with Apis mellifera (oral, unspecified), greater than 41.6 µg/piece; in the series on Rattus norvegicus it was greater than 1000 mg/kg-day. Also, the NOAEL with Anas platyrhynchos (reproductive, other) was 15.9 mg/kg-day; in the series on Oryctolagus sp. it was 50 mg/kg-day. The NOEC with Bibionidae amounted to 490 µg/L; in the series with Daphnia magna, 0.84 mg/L; with Tagia sp. it was 500 mg/kg; with Pimephales promelas it was 2.9 mg/L; in the series on Folsomia candida, 1000 mg/kg. The LR50 with Aphidius rhopalosiphi and with Typhlodromus pyri was greater than 50 g/ha in each case.
